Where “and” joins values, the source holds several entries; their conditions need not be identical. Equal values may be shown once. Where a name gives a salt, the structure may show the parent alone. Read-outs that look alike come from different tables or passages of the source.
What was measured:
[1] = molecular target: T1, α2A adrenoceptor (Homo sapiens, UniProt P08913); assay: DMR label-free assay in CHO cells transfected with α2A-RLuc8 receptor; format: cell-based; conditions: for DMR response: at 300 nM, Fig. 6 legend: 100 nM
T1 sequence (P08913 1-465): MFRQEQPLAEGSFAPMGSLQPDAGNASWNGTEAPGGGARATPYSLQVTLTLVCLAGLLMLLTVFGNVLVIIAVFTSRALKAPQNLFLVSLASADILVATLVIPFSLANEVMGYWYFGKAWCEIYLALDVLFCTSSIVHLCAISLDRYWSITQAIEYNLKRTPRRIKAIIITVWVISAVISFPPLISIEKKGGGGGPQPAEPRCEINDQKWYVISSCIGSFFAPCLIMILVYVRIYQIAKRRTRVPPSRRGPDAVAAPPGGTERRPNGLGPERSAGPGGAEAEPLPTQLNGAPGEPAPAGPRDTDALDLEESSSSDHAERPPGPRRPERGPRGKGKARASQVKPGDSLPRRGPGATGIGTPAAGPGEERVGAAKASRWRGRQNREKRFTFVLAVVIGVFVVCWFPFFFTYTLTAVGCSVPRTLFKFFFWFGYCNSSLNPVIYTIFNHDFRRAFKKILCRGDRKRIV

[2] = molecular target: α2 adrenoceptors (striatum, α2A and α2C); assay: [3H]RX821002 binding; set-up: species or system sheep
[3] = molecular target: T1, α2A adrenoceptor; assay: G protein activation BRET assay in transfected HEK-293T cells; format: cell-based; conditions: for EC50: read-out: Potency (EC50) G protein activation
[4] = molecular target: T1, α2A adrenoceptor; assay: ERK1/2 phosphorylation in CHO cells transfected with α2A-RLuc8 receptor; format: cell-based; conditions: 5 minutes; for MAPK activation (ERK1/2 phosphorylation): 1 μM
[5] = molecular target: T2, α2C adrenoceptor (Homo sapiens, UniProt P18825); assay: G protein activation BRET assay in transfected HEK-293T cells; format: cell-based
T2 sequence (P18825 1-462): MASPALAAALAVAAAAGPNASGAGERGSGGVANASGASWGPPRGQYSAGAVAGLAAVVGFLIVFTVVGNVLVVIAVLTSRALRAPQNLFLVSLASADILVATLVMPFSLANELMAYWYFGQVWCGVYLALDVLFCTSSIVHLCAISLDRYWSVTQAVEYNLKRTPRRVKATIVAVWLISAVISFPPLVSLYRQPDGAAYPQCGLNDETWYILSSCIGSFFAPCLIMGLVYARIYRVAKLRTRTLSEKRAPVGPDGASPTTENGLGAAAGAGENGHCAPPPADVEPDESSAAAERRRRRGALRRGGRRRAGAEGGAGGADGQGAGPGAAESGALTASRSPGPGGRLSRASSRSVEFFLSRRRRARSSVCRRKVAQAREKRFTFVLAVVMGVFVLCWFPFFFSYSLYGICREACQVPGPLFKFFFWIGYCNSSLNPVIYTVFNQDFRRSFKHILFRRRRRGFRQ

[6] = molecular target: α2 adrenoceptors (cortex, mostly α2A) (Ovis aries, UniProt A0ACI6PY47); assay: [3H]RX821002 binding; set-up: species or system sheep
[7] = molecular target: T1, α2A adrenoceptor
[8] = molecular target: T2, α2C adrenoceptor
[9] = molecular target: T3, human D4 receptor (Homo sapiens, UniProt P21917); format: binding; conditions: HEK-293T membranes, up to 10 μM; data not shown
T3 sequence (P21917 1-419): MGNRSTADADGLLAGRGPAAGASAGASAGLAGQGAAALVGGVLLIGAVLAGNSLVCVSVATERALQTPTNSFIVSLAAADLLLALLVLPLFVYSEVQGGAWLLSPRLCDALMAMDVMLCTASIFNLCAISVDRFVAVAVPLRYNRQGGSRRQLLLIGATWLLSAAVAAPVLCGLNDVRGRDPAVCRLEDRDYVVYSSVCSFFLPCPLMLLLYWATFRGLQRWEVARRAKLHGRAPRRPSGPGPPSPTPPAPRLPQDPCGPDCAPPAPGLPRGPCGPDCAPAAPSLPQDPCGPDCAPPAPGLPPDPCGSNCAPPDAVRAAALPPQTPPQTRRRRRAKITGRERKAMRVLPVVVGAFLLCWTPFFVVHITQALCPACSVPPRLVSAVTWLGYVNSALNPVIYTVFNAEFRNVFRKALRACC

[10] = molecular target: human D2 receptor (Homo sapiens, UniProt P14416); format: binding; conditions: HEK-293T membranes, up to 10 μM; data not shown
Chain of human D2 receptor (P14416 whole entry): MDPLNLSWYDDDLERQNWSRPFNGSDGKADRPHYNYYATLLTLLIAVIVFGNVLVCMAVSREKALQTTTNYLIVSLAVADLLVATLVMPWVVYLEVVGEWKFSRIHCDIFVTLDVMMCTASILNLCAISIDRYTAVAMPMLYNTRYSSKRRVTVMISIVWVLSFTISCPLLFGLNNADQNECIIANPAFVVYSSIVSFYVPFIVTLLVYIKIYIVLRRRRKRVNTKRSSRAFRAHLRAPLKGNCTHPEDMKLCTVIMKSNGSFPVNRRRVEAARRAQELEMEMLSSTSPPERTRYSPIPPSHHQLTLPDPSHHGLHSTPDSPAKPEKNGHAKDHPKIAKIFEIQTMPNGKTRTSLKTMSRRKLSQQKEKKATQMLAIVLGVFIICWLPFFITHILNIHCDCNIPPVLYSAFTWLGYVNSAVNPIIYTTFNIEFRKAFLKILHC

[11] = molecular target: human D3 receptor (Homo sapiens, UniProt P35462); format: binding; conditions: HEK-293T membranes, up to 10 μM; data not shown
Chain of human D3 receptor (P35462 whole entry): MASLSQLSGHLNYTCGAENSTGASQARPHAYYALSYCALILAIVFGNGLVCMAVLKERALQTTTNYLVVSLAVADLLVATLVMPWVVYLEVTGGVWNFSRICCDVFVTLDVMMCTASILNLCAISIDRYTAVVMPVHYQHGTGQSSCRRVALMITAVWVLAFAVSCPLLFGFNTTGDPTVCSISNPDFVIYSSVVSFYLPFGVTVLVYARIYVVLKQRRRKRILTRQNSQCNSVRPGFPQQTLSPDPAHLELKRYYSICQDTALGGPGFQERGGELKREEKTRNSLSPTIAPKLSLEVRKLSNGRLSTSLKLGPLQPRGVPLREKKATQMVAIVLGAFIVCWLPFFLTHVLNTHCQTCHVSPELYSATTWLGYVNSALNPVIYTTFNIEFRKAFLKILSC

[12] = molecular target: D2-like receptors (Ovis aries, UniProt A0ACI6R699); assay: [3H]YM-09151-2 competition binding, sheep brain striatum; conditions: sheep striatal membranes; any concentration up to 10 μM
[13] = molecular target: T2, α2C adrenoceptor; assay: cell-based
[14] = molecular target: D2-like receptor D2L; conditions: read-out: EC50 values, G protein activation, across Gi/o protein subtypes; cited from earlier work
[15] = read-out: KDB1, striatum, vs [3H]RX821002, two-state dimer model, first protomer
[16] = read-out: KDB2, striatum, vs [3H]RX821002, two-state dimer model, second protomer
[17] = read-out: KDB1, cortex, vs [3H]RX821002, two-state dimer model, first protomer
[18] = read-out: KDB2, cortex, vs [3H]RX821002, two-state dimer model, second protomer

CC1c2ccccc2CN1CC1=NCCN1 (stereo not shown) [BRL 44408]
effect on DA and NE activation of DMR ([1]; BRL 44408 1 μM, 30 minutes pretreatment): decreased

Clc1cccc(Cl)c1N=C1NCCN1 [Clonidine, clonidine hydrochloride]
Kd [2, 15]: 0.036 nM | Kd [2, 16]: 20 nM | Efficacy (Emax) G protein activation [3]: 110 ± 10 percentage of NE values and 120 ± 2 percentage of NE values and 120 ± 5 percentage of NE values and 89 ± 6 percentage of NE values and 112 ± 8 percentage of NE values

Cc1ncc(CN2CC=C(c3ccccc3)CC2)c(N)n1.Cl.Cl [RO-105824, RO-105824 dihydrochloride]
Kd [2, 15]: 0.42 nM | DMR response [1]: substantially lower | G protein activation (agonist effect) ([3]; α2A, Gαi2 and Gαi3): small efficacy | G protein activation (agonist effect) ([3]; α2A, Gαi/o subtypes other than Gαi2 and Gαi3): did not produce a significant activation | inhibition of the agonistic effect of clonidine (1 μM) ([3]; α2A, Gαo1): did counteract | MAPK activation (ERK1/2 phosphorylation) [4]: able to produce MAPK activation | inhibition of the agonistic effect of clonidine (1 μM) ([5]; α2C, Gαo1): did counteract | G protein activation (agonist effect) ([5]; α2C, any of the Gαi/o subtypes): did not produce a significant activation | Kd [6, 17]: 0.055 nM | Kd [6, 18]: 4000 nM

COC(=O)[C@@H]1[C@H]2C[C@H]3c4[nH]c5ccccc5c4CCN3C[C@@H]2CC[C@@H]1O [yohimbine, yohimbine hydrochloride]
blockade of Gi/o-dependent effects of NE and DA on adenylyl cyclase ([7]; yohimbine 10 μM): blocked | blockade of Gi/o-dependent effects of NE and DA on adenylyl cyclase ([8]; yohimbine 10 μM): blocked | blockade of Gαo1 activation induced by 10 μM 7-OH-PIPAT or 10 μM quinpirole [3]: completely blocked | blockade of Gαo1 activation induced by 10 μM 7-OH-PIPAT or 10 μM quinpirole [5]: completely blocked

CCCN(C/C=C/I)C1CCc2ccc(O)cc2C1 (stereo not shown) [7-OH-PIPAT, 7-OH-PIPAT maleate]
Kd [2, 15]: 51 nM | DMR response [1]: significant response | Efficacy (Emax) G protein activation ([3]; Gαi1, α2A): 94 ± 6 percentage of NE values | Efficacy (Emax) G protein activation ([3]; Gαi2, α2A): 55 ± 2 percentage of NE values | Efficacy (Emax) G protein activation ([3]; Gαi3, α2A): 71 ± 6 percentage of NE values | Efficacy (Emax) G protein activation ([3]; Gαo1, α2A): 81 ± 9 percentage of NE values | Efficacy (Emax) G protein activation ([3]; Gαo2, α2A): 85 ± 4 percentage of NE values | EC50 ([3]; Gαo1, α2A): 100 ± 20 nM | EC50 ([3]; Gαo2, α2A): 66 ± 7 nM | MAPK activation (ERK1/2 phosphorylation) [4]: able to produce MAPK activation | Efficacy (Emax) G protein activation ([5]; Gαi1, α2C, ND: not detectable): 41 ± 1 percentage of NE values | Efficacy (Emax) G protein activation ([5]; Gαi2, α2C): 90 ± 20 percentage of NE values | Efficacy (Emax) G protein activation ([5]; Gαi3, α2C): 90 ± 10 percentage of NE values | Efficacy (Emax) G protein activation ([5]; Gαo1, α2C): 98 ± 7 percentage of NE values | Efficacy (Emax) G protein activation ([5]; Gαo2, α2C): 106 ± 3 percentage of NE values | EC50 ([5]; read-out: Potency (EC50) G protein activation, Gαi3, α2C): 5 ± 3 nM | DCB (cooperativity index) ([6]; cortex, vs [3H]RX821002): DCB: -1.1 | Kd [6, 17]: 9 nM | Kd [6, 18]: 430 nM

COC1(C2=NCCN2)COc2ccccc2O1 (stereo not shown) [[^3H]RX821002]
Kd ([2]; read-out: affinity value (KDA1) of the radioligand, saturation experiments, striatal tissue, n=4-8): 0.07 ± 0.01 nM | Kd ([6]; read-out: affinity value (KDA1) of the radioligand, saturation experiments, cortical tissue, n=4-8): 0.06 ± 0.01 nM

COC1(C2=NCCN2)COc2ccccc2O1 (stereo not shown) [RX821002]
displacement of [3H]YM-09151-2 binding [9]: identical results | displacement of [3H]YM-09151-2 binding [10]: identical results | displacement of [3H]YM-09151-2 binding [11]: identical results | displacement of [3H]YM-09151-2 binding [12]: did not displace

NC[C@H](O)c1ccc(O)c(O)c1 [NE, L-(-)-norepinephrine (+)-bitartrate salt monohydrate]
EC50 [13]: 7 ± 4 nM | Gs activation (inverted U-shaped curve, high ligand concentrations) ([7]; at 10 and 100 μM): promoted Gs activation | Gs activation (inverted U-shaped curve, high ligand concentrations) ([8]; at 10 and 100 μM): promoted Gs activation | Efficacy (Emax) G protein activation ([3]; Gαi1, α2A): 100 ± 5 percentage of NE values | Efficacy (Emax) G protein activation ([3]; Gαi2, α2A): 100 ± 10 percentage of NE values | Efficacy (Emax) G protein activation ([3]; Gαi3, α2A): 100 ± 10 percentage of NE values | Efficacy (Emax) G protein activation ([3]; Gαo1, α2A): 100 ± 7 percentage of NE values | Efficacy (Emax) G protein activation ([3]; Gαo2, α2A): 100 ± 9 percentage of NE values | increase of ERK1/2 phosphorylation levels ([4]; 300 nM): 3 fold over basal | Efficacy (Emax) G protein activation ([5]; Gαi1, α2C, ND: not detectable): 100 ± 2 percentage of NE values | Efficacy (Emax) G protein activation ([5]; Gαi2, α2C): 100 ± 7 percentage of NE values | Efficacy (Emax) G protein activation ([5]; Gαi3, α2C): 100 ± 9 percentage of NE values | Efficacy (Emax) G protein activation ([5]; Gαo1, α2C): 100 ± 10 percentage of NE values | Efficacy (Emax) G protein activation ([5]; Gαo2, α2C): 100 ± 8 percentage of NE values | EC50 ([5]; Potency (EC50) G protein activation, Gαi3, α2C): 0.4 ± 0.2 nM

NCCc1ccc(O)c(O)c1 [DA, Dopamine hydrochloride]
Kd [2, 15]: 6 nM | Kd [2, 16]: 1000 nM | EC50 [14]: 130 to 400 nM

— PMC6143434 (Molecular neurobiology, 2018)
